pIC50: −log10 of the molar value.
Legend:
[1] = target: recombinant human prolyl oligopeptidase (PREP) (Homo sapiens (Human), UniProt P48147); experiment: In vitro assay prolyl oligopeptidase IC50 (Example 21); format: biochemical
[2] = Stability of 6555 with sulfur-containing and other stabilizers, 50 mM AAPH at 80° C. for 30 mins (Tables 7-9); format: physicochemical; settings: for 6555 Remaining (%): 50 mM AAPH, 80° C., 0.5 hr, (+) mode; for 6555 Remain (%): AAPH 80° C. 30 mins
Text: The effect of specified sulfur-containing compounds and other stabilizer compounds (including non-sulfur-containing stabilizer compounds) and mixtures of sulfur-containing compounds and non-sulfur-containing stabilizer compounds with the boronic acid compound 6555 (structure shown above) at various pH values.

Chain of recombinant human prolyl oligopeptidase (PREP) (P48147 whole entry): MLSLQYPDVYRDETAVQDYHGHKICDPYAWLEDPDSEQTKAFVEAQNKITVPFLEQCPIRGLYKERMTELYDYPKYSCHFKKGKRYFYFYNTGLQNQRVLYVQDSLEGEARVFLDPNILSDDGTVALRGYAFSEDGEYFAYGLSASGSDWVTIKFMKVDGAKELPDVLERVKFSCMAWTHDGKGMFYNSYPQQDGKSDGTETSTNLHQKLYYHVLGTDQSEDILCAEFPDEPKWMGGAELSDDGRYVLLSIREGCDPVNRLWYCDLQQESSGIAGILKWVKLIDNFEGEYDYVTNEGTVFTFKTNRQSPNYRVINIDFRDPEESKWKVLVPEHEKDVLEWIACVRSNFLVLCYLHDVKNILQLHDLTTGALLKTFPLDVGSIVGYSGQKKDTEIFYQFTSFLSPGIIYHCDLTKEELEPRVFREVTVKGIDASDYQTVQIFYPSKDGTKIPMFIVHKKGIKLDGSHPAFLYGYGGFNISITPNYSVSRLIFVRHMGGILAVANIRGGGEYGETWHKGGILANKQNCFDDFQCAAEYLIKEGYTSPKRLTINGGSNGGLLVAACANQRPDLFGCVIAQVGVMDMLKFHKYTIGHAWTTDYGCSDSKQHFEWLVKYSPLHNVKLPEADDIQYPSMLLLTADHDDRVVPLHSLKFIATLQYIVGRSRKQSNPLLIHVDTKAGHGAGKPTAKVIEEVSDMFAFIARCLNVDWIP

## C[C@@H](NC(=O)c1ccc(CNC(=O)CN2CCN(CC(=O)O)CCN(CC(=O)O)CCN(CC(=O)O)CC2)cc1)C(=O)N1CCC[C@H]1B(O)O [compound 6555, DOTA-aminomethyl-Bz-D-Ala-boroPro]
[1]
  pIC50: 6.06
[2]; NAM 5 mM, sodium metabisulfite 5 mM, pH 4.3
  6555 Remaining (%): 88.8%
[2]; NAM 25 mM, pH 4.0
  6555 Remaining (%): 85.9%
[2]; no stabilizer, pH 4.6
  6555 Remaining (%): 55.8%
[2]; sodium ascorbate 2.5 mM, sodium gentisate 1 mM, Acetone sodium bisulfite (2.5 mM), pH 4.6
  6555 Remaining (%): 73.1%
[2]; sodium ascorbate 2.5 mM, sodium gentisate 1 mM, Acetone sodium bisulfite (25 mM), pH 4.6
  6555 Remaining (%): 94.0%
[2]; sodium ascorbate 2.5 mM, sodium gentisate 1 mM, D-mannitol (25 mM), pH 4.5
  6555 Remaining (%): 15.5%
[2]; sodium ascorbate 2.5 mM, sodium gentisate 1 mM, Disodium hydrosulfite (25 mM), pH 4.3
  6555 Remaining (%): 94.1%
[2]; sodium ascorbate 2.5 mM, sodium gentisate 1 mM, MSM(dimethyl sulfone) (25 mM), pH 4.5
  6555 Remaining (%): 8.2%
[2]; sodium ascorbate 2.5 mM, sodium gentisate 1 mM, N-Acetyl-L-phenylalanine (25 mM), pH 4.0
  6555 Remaining (%): 20.1%
[2]; sodium ascorbate 2.5 mM, sodium gentisate 1 mM, N-Acetyl-L-tyrosine (25 mM), pH 4.0
  6555 Remaining (%): 13.6%
[2]; sodium ascorbate 2.5 mM, sodium gentisate 1 mM, NAC (25 mM), pH 4.1
  6555 Remaining (%): 31.4%
[2]; sodium ascorbate 2.5 mM, sodium gentisate 1 mM, NAM 2.5 mM, sodium metabisulfite 2.5 mM, pH 4.5
  6555 Remaining (%): 94.8%
[2]; sodium ascorbate 2.5 mM, sodium gentisate 1 mM, NAM 2.5 mM, pH 4.5
  6555 Remaining (%): 53.3%
[2]; sodium ascorbate 2.5 mM, sodium gentisate 1 mM, NAM 10 mM, sodium metabisulfite 2.5 mM, pH 4.0
  6555 Remaining (%): 93.2%
[2]; sodium ascorbate 2.5 mM, sodium gentisate 1 mM, NAM 25 mM, sodium metabisulfite 2.5 mM, pH 4.0
  6555 Remaining (%): 92.2%
[2]; sodium ascorbate 2.5 mM, sodium gentisate 1 mM, NAM 25 mM, pH 4.0
  6555 Remaining (%): 90.8%
[2]; sodium ascorbate 2.5 mM, sodium gentisate 1 mM, Potassium metabisulfite (2.5 mM), pH 4.4
  6555 Remaining (%): 93.7%
[2]; sodium ascorbate 2.5 mM, sodium gentisate 1 mM, Potassium metabisulfite (25 mM), pH 4.5
  6555 Remaining (%): 94.1%
[2]; sodium ascorbate 2.5 mM, sodium gentisate 1 mM, Sodium L-Glutamate monohydrate (concentration cut off), pH 4.7
  6555 Remaining (%): 8.2%
[2]; sodium ascorbate 2.5 mM, sodium gentisate 1 mM, Sodium formaldehydesulfoxylate di (concentration cut off), pH 4.4
  6555 Remaining (%): 91.7%
[2]; sodium ascorbate 2.5 mM, sodium gentisate 1 mM, Sodium formaldehydesulfoxylate di (concentration cut off, second entry), pH 4.5
  6555 Remaining (%): 58.0%
[2]; sodium ascorbate 2.5 mM, sodium gentisate 1 mM, Sodium sulfite (2.5 mM), pH 4.5
  6555 Remaining (%): 67.9%
[2]; sodium ascorbate 2.5 mM, sodium gentisate 1 mM, Sodium sulfite (5 mM), pH 4.6
  6555 Remaining (%): 90.3%
[2]; sodium ascorbate 2.5 mM, sodium gentisate 1 mM, Sodium sulfite (10 mM), pH 4.8
  6555 Remaining (%): 93.8%
[2]; sodium ascorbate 2.5 mM, sodium gentisate 1 mM, Sodium sulfite (25 mM), pH 5.1
  6555 Remaining (%): 94.1%
[2]; sodium ascorbate 2.5 mM, sodium gentisate 1 mM, Thiourea (25 mM), pH 4.5
  6555 Remaining (%): 84.1%
[2]; sodium ascorbate 2.5 mM, sodium gentisate 1 mM, disodium hydrosulfite 1 mM, pH 4.5
  6555 Remaining (%): 47.4%
[2]; sodium ascorbate 2.5 mM, sodium gentisate 1 mM, disodium hydrosulfite 2.5 mM, pH 4.4
  6555 Remaining (%): 91.7%
[2]; sodium ascorbate 2.5 mM, sodium gentisate 1 mM, disodium hydrosulfite 5.0 mM, pH 4.5
  6555 Remaining (%): 94.3%
[2]; sodium ascorbate 2.5 mM, sodium gentisate 1 mM, disodium hydrosulfite 10.0 mM, pH 4.5
  6555 Remaining (%): 94.1%
[2]; sodium ascorbate 2.5 mM, sodium gentisate 1 mM, disodium hydrosulfite 40.0 mM, pH 4.0
  6555 Remaining (%): 94.6%
[2]; sodium ascorbate 2.5 mM, sodium gentisate 1 mM, sodium metabisulfite 1 mM, pH 4.5
  6555 Remaining (%): 71.1%
[2]; sodium ascorbate 2.5 mM, sodium gentisate 1 mM, sodium metabisulfite 2.5 mM, pH 4.5
  6555 Remaining (%): 93.4%
[2]; sodium ascorbate 2.5 mM, sodium gentisate 1 mM, sodium metabisulfite 25 mM, pH 4.4
  6555 Remaining (%): 93.8%
[2]; sodium ascorbate 2.5 mM, sodium gentisate 1 mM, pH 4.6
  6555 Remaining (%): 30.8%
[2]; sodium ascorbate 2.5 mM, sodium gentisate 1 mM, pH 5.1
  6555 Remaining (%): 16.7%
[2]; sodium ascorbate 5 mM, sodium gentisate 2 mM, NAM 5 mM, disodium hydrosulfite 5 mM, pH 4.5
  6555 Remaining (%): 95.7%
[2]; sodium ascorbate 5 mM, sodium gentisate 2 mM, NAM 5 mM, sodium metabisulfite 5 mM, pH 4.5
  6555 Remaining (%): 95.8%
[2]; sodium ascorbate 5 mM, sodium gentisate 2 mM, NAM 5 mM, pH 4.5
  6555 Remaining (%): 66.5%
[2]; sodium ascorbate 5 mM, sodium gentisate 2 mM, sodium metabisulfite 5 mM, disodium hydrosulfite 5 mM, pH 4.4
  6555 Remaining (%): 95.3%
[2]; sodium ascorbate 5 mM, sodium gentisate 2 mM, sodium metabisulfite 5 mM, pH 4.5
  6555 Remaining (%): 95.6%
[2]; Sodium ascorbate (2.5 mM) +, Sodium gentisate (1 mM) +, Stabilizer (2.5 mM) Sodium sulfite, pH 5.1, SID 90517
  6555 Remain (%): 94.1%
[2]; ascorbate (2.5 mM) +, gentisate (1 mM) +, Sodium hydrosulfite 2.5 mM, pH 4.4, SID 90537
  6555 Remain (%): 91.7%
